Holding throughout (format): binding, sheep
The test system of experiment [1] is antibodies raised to Immunogens I & II. Put plainly: Competitive ELISA, selected molecules as potential cross-reactants (Table 3). The note with it: for % CR / IC50: Table 3, standard conc 750.00 ng/ml. Here is the method:
(a) The wells of an enhanced binding 96 well polystyrene microtiter plate were coated with the Ig fraction of the antiserum raised to Immunogen I (Hapten A-BTG—example 5) and diluted in 10 mM Tris, pH8.5 (125 μl/well). The appropriate antibody coating concentration was determined using standard ELISA checkerboard techniques. The plate was incubated for 2 hours at 37° C., washed 4 times over a 10-minute period with Tris buffered saline containing Tween 20 (TBST) and tapped dry. Standard solutions of JWH synthetic cannabinoids, metabolites and selected molecules were prepared in TBST and 50 μl of each was added to the appropriate wells. 75 μl of conjugate (Hapten A-HRP) diluted in Tris buffer containing EDTA, D-mannitol, sucrose, thimerosal and BSA, was added to each of the wells. The appropriate dilution of conjugate was also determined using standard ELISA checkerboard techniques. The plate was incubated at 25° C. for 1 hour. The excess unbound conjugate was removed by washing 6 times over a 10-minute period with TBST and tapped dry. 125 μl of tetramethylbenzedine (TMB) substrate solution was added to each well of the plate that was then incubated for 15-20 minutes in the dark at room temperature. The reaction was terminated by addition of 125 μl of 0.2M sulphuric acid to each well. The absorbance was then measured at 450 nm using a microtiter plate reader.
Employing each series of standards, calibration curves were generated and these were used to determine the specificity of the immunoassay for the JWH synthetic cannabinoids, metabolites and selected molecules. The results of this study are presented in Tables 1 to 3, cross-reactivity being calculated according to the following formula: % CR=IC50,JWH-018/IC50,CR×100
Where % CR is the percentage cross-reactivity, IC50, JWH-018 is the concentration of JWH-018 that causes 50% displacement of signal and IC50, CR is the concentration of JWH synthetic cannabinoid/metabolite/selected molecule that causes 50% displacement of signal.
The antibody produced from Immunogen I is able to bind to JWH molecules known to be incorporated in herbal therapeutics such as JWH-018, proposed metabolites such as M2 (Wintermeyer et al 2010), and potential metabolites such as M5. The detection and quantification of other JWH SSCs is also provided for, the antibodies of the invention bind a range of molecules comprising the 3-(1-naphthoyl)-1H-indole structure (e.g. JWH-071, JWH-398, M1 etc.). […] The concept of using the antibodies of the invention to detect and determine future stealth synthetic cannabinoids is highlighted in Table 4; the 5-fluoropentyl derivative known to bind the CB 1 receptor, but which as of yet has not been detected in herbal therapeutics or similar substances, binds to antibodies raised from Immunogens I and II.
(In an ELISA, binding on a coated surface is turned into a signal by an enzyme label.)

The test system of experiment [2] is IgG fraction of antiserum raised to Immunogen IV. Conditions: Antibody to Immunogen IV; cross-reactants at 100 ng/ml; 1000 ng/ml; standard JWH-018.
In experiment [3] the test system is IgG fraction of antiserum raised to Immunogen VII. Conditions: Antibody to Immunogen VII; cross-reactants at 100 ng/ml; 1000 ng/ml; standard JWH-015.
Experiment [4] deals with IgG fraction of antiserum raised to Immunogen VIII. The note with it: Antibody to Immunogen VIII; cross-reactants at 100 ng/ml; 1000 ng/ml; standard JWH-018.
Experiment [5] relates to IgG fraction of antiserum raised to Immunogen I. Conditions: Antibody to Immunogen I; cross-reactants at 100 ng/ml; 1000 ng/ml; standard JWH-018. The essentials:
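Plates were coated with the IgG fraction of sheep antiserum raised to Immunogen I and incubated with standards (JWH-018, 0-40 ng/ml) plus hapten-HRP conjugate for 1 h at 25° C. Detection used TMB, read at 450 nm. IC50 was taken from a 4-parameter fit as the concentration giving half the zero-standard OD.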

Experiment [6] relates to IgG fraction of antiserum raised to Immunogen II. Nature of the experiment: Competitive ELISA, antibody RS1833B12 to Immunogen II, tracer ESC4555 (Example 36). The note with it: Antibody to Immunogen II; cross-reactants at 100 ng/ml; 1000 ng/ml; standard JWH-018. Here is the method: An aqueous solution of each immunogen was formulated with Freund's Complete Adjuvant (FCA) to form an emulsion consisting of 2 mg/ml*immunogen in 50% (v/v) FCA. Three sheep were immunised with this emulsion (1° immunisation), 0.25 ml being intramuscularly injected at each of four sites in the flank of each animal. Subsequent immunizations (boosts) contained 1 mg/ml*immunogen. All boosts were emulsified in 50% (v/v) Freund's Incomplete Adjuvant (FIA) and were administered in the same manner as the 1° immunisation, at monthly intervals. Blood sampling took place 7 to 14 days after each boost. *The general procedure for immunogen administration is outlined above, however, it was necessary to deviate from this protocol in some cases, due to reduced immunogen concentrations (Immunogens II, IV, VII and VIII) and/or amount available (Immunogen VIII). Any deviations from the protocol described are outlined in Table 5 below and highlighted in bold.
The appropriate antibody coating dilution was determined using standard ELISA checkerboard techniques. The plate was incubated overnight at 4° C., washed 4 times over 10 minutes with Tris buffered saline containing Tween 20 (TBST) and tapped dry. […] 75 μl of conjugate (appropriate hapten-HRP) diluted in Tris buffer (pH 7.2) containing EDTA, D-mannitol, sucrose, thimerosal and BSA, was added to each of the wells. The appropriate dilution of conjugate was also determined using standard ELISA checkerboard techniques. The plate was incubated at 25° C. for 1 hour. Excess unbound conjugate was removed by washing 6 times over a 10 minute period with TBST. 125 μl of tetramethylbenzidine (TMB) substrate solution was added to each well of the plate that was then incubated for 20 minutes in the dark at room temperature. The reaction was terminated by addition of 125 μl 0.2M H2SO4 to each well. The absorbance was then measured at 450 nm using a microtiter plate reader. The data are inputted to a computer program called ‘KC Junior’. It is a 4 parameter fit curve and allow the calculation of concentrations between the standard runs.
In a similar manner to that described above, the wells of a 96-well microtiter plate were coated with the IgG fraction of the antiserum raised to Immunogens I or II.
The data set out in Tables 7-10 are generated using antibodies raised against the indicated Immunogens in a competitive binding assay with the indicated tracers, using the indicated standards
Using the calibration curves generated and employing a single level of cross reactants, these were used to determine the cross-reactivity of each immunoassay with these substances. These are the standards used for the IC50 and cross-reactivity data generation: […]

Consider 19 compounds from patent US9434687B2, “Detection of synthetic cannabinoids” (priority 2011, dated 2016).

Turning to `CCn1cc(C(=O)c2cccc3ccccc23)c2ccccc21` [JWH-071], the “binding / cross-reaction with antibodies raised from Immunogens I and II (in words)” value in experiment [1] is listed as “bind”.

In the case of `O=C(c1cccc2ccccc12)c1cn(CCN2CCOCC2)c2ccc(O)cc12` [JWH-200 5-hydroxyindole metabolite], the “% B/B0” value in experiment [2] worked out at 97.53%; in experiment [3], 82.42%; in experiment [4] it was 90.88%; in experiment [5] it was 12.61%; in experiment [6] it was 64.99%.

As to `CCCCCn1cc(C(=O)c2cccc3c(OC)cccc23)c2ccccc21` [JWH-081 5-methoxynaphthyl isomer], the “% B/B0” value in experiment [2] was found to be 6.24%; in experiment [3] it was 94.16%; in experiment [4] it was 26.56%; in experiment [5] it was 18.51%; in experiment [6], 60.90%.

Regarding `O=C(c1cccc2ccccc12)c1cn(CCCCO)c2ccccc12` [JWH-073 N-(4-hydroxybutyl) metabolite], the “% B/B0” value was 52.61% in experiment [2]; 48.81% in experiment [3]; 57.99% in experiment [4]; 3.22% in experiment [5]; 60.01% in experiment [6].

As to `CCCCCn1cc(C(=O)c2cccc3ccccc23)c2ccc(OC)cc21` [JWH-018 6-methoxyindole analogue], the “% B/B0” value in experiment [2] came out at 90.65%; in experiment [3] it was 72.33%; in experiment [4], 77.22%; in experiment [5], 10.55%; in experiment [6], 20.44%.

As for `CCCCn1cc(C(=O)c2cccc3ccccc23)c2ccc(O)cc21` [6-OH JWH-073, JWH-073 6-hydroxyindole metabolite], the “% B/B0” value in experiment [2] was determined as 74.89%; in experiment [3], 61.83%; in experiment [4], 93.52%; in experiment [5], 5.93%; in experiment [6], 28.03%.

With `CCCC(C)n1cc(C(=O)c2cccc3ccccc23)c2ccccc21` (single isomer, unassigned) [JWH-018 N-(1-methylbutyl) isomer], the “% B/B0” value in experiment [2] is on record as 73.49%; in experiment [3] it was 67.71%; in experiment [4], 63.22%; in experiment [5], 12.42%; in experiment [6], 51.92%.

With `O=C(c1ccccc1I)c1cn(CCCCCF)c2ccccc12` [AM-694], the “% B/B0” value in experiment [2] came out at 11.30%; in experiment [3] it was 75.66%; in experiment [4] it was 11.92%; in experiment [5], 12.17%; in experiment [6] it was 36.18%.

As to `O=C(c1cccc2ccccc12)c1cn(CCCC(O)CF)c2ccccc12` (stereo not shown) [AM-2201 N-(4-hydroxypentyl) metabolite], the “% B/B0” value in experiment [2] is recorded as 43.62%; in experiment [3], 52.75%; in experiment [4] it was 36.41%; in experiment [5], 3.80%; in experiment [6], 46.55%.

Usually IC50 stands for the midpoint of a concentration-inhibition curve. On to `CCCCCn1cc(C(=O)O)c2ccccc21` [3-Carboxy-N-pentyl-1H-indole, 3-carboxy-1-pentyl-1H-indole], for which, in experiment [1], the “% CR” value was less than 0.28% and the IC50 is greater than 0.75 µg/mL.

For `CCCCCn1cc(C(=O)c2ccc(C)c3ccccc23)c2ccccc21` [JWH-122], the “% B/B0” value in experiment [2] turned out to be 3.94%; in experiment [3], 89.37%; in experiment [4] it was 14.43%; in experiment [5], 62.98%; in experiment [6], 44.55%.

On to `CCCCCCn1cc(C(=O)c2cccc3ccccc23)c2ccccc21` [JWH-019], for which the “% B/B0” value in experiment [2] amounted to 21.96%; in experiment [3] it was 70.05%; in experiment [4], 74.50%; in experiment [5] it was 7.22%; in experiment [6], 15.42%.

Regarding `NCCc1c[nH]c2ccc(O)cc12` [Serotonin], in experiment [1], the “% CR” value is on record as less than 0.28% and the IC50 is greater than 0.75 µg/mL.

With `CCCCCc1cc(O)c2c(c1)OC(C)(C)[C@@H]1CCC(CO)=C[C@@H]21` [11-Hydroxy-δ-9-THC], in experiment [1], the “% CR” value is less than 0.28% and the IC50 is greater than 0.75 µg/mL.

Take `CC(O)CCn1cc(C(=O)c2cccc3ccccc23)c2ccccc21` (stereo not shown) [JWH-073 N-(3-hydroxybutyl) metabolite]: the “% B/B0” value in experiment [2] is listed as 53.52%; in experiment [3], 43.39%; in experiment [4], 94.04%; in experiment [5] it was 3.10%; in experiment [6] it was 54.52%.

Turning to `C=CCCCn1cc(C(=O)c2cccc3ccccc23)c2ccccc21` [JWH-022], the “% B/B0” value in experiment [2] amounted to 10.61%; in experiment [3], 58.44%; in experiment [4], 28.94%; in experiment [5], 4.51%; in experiment [6] it was 11.72%.

On to `CCCCCCn1cc(C(=O)c2cccc3ccccc23)c2cc(O)ccc21` [JWH 019 5-hydroxyindole metabolite], for which the “% B/B0” value in experiment [2] was 93.84%; in experiment [3], 87.58%; in experiment [4], 101.57%; in experiment [5], 19.81%; in experiment [6], 17.34%.

In the case of `CCCCn1cc(C(=O)c2cccc3ccccc23)c2cccc(O)c21` [7-OH JWH-073, JWH-073 7-hydroxyindole metabolite], the “% B/B0” value in experiment [2] stood at 96.95%; in experiment [3] it was 61.78%; in experiment [4], 94.04%; in experiment [5], 5.59%; in experiment [6] it was 46.05%.

As to `Cc1ccc(C(=O)c2cn(CCCCCO)c3ccccc23)c2ccccc12` [JWH-122 N-(5-hydroxypentyl) metabolite], the “% B/B0” value in experiment [2] turned out to be 25.72%; in experiment [3], 83.65%; in experiment [4], 48.67%; in experiment [5], 42.80%; in experiment [6], 71.76%.
